A short description of one series: Stability in solution. As to conditions: converted to VI-1B; mixture of II-48 and VI-1B in the ratio of 7:3. It counts as physicochemical. How it is done: The reaction mixture was stirred at room temperature for about 3 hours. The solvent was evaporated from the reaction mixture to yield the compound of Formula II-48, which was purified by reversed phase HPLC using Ace 5u C18 column (150 mm×22 mm ID) with a solvent gradient of 10% to 70% H2O/Acetonitrile over 15 min, 70 to 100% Acetonitrile over 5 min, holding at 100% Acetonitrile for 4 min, at a flow rate of 14.5 ml/min. Diode array detector was used to monitor the purification process. Compound II-48 (10 mg) eluted as a pure compound at 8.255 min. […] Compound VI-1B: UV (Acetonitrile/H2O) λmax 235 (sh) nm; ESMS, m/z 585.2 (M+H)^−.

The test system of the next series is MDA-MB-231. Kind of series: Cell growth inhibition (resazurin), MDA-MB-231. As to conditions: for cytotoxicity against MDA-MB-231, in words: from EC50 values.
The target in series [1] is T1, caspase-like activity of purified rabbit muscle 20S proteasome (Oryctolagus cuniculus, UniProt A0A5F9DQW2).
T1 sequence (A0A5F9DQW2 1-212): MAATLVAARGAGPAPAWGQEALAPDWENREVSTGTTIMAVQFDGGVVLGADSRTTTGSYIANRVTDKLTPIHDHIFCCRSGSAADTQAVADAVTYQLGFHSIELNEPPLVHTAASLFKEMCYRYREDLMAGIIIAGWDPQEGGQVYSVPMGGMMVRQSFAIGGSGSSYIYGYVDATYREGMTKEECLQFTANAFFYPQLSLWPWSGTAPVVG
The series can be described thus: In vitro inhibition of 20S proteasome caspase-like activity (Z-LLE-AMC).

For another series, the system named is NF-κB. The series can be described thus: NF-κB-mediated luciferase reporter gene assay, HEK293 NF-κB/Luc cells, TNF-α stimulation. It counts as cell-based, human. As to conditions: for effect on luciferase activity upon TNF-α stimulation, in words: pretreatment of NF-κB/Luc 293 cells; for EC50: read-out: EC50, NF-κB-mediated luciferase reporter gene assay, Table 5, values in nM, 1 hr pretreatment, TNF-α 6 hr. An outline of the steps:
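Cells seeded at 1.5×10^4/well in phenol-red free DMEM, pretreated 1 h with 8-point half-log compound dilutions (DMSO stocks), then stimulated with TNF-α (10 μl of 50 ng/ml solution) for 6 h. Luciferase read as RLU after 10 min with Steady Lite reagent at room temperature.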

The next series has as its system HT-29. Kind of series: Cell growth inhibition (resazurin), HT-29. As to conditions: for cytotoxicity against HT-29, in words: from EC50 values.
In a further series the test system is RPMI 8226. Kind of series: Cell growth inhibition (resazurin), RPMI 8226. As to conditions: for cytotoxicity against RPMI 8226, in words: from EC50 values; for EC50: 48 hours drug exposure.
Another series deals with U266. Kind of series: Cell growth inhibition (resazurin), U266. As to conditions: for cytotoxicity against U266, in words: from EC50 values; for EC50: 48 hours drug exposure.
Series [2] addresses T2, chymotrypsin-like activity of purified rabbit muscle 20S proteasome (Oryctolagus cuniculus, UniProt G1T4Q9).
T2 sequence (G1T4Q9 1-263): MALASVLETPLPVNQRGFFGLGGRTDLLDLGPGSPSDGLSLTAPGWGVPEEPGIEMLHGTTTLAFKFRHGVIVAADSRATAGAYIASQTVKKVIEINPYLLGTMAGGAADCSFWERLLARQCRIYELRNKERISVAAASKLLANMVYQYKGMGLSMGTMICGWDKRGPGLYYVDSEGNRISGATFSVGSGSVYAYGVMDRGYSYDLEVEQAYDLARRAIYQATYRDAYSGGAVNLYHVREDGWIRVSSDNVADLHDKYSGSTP
The series can be described thus: In vitro inhibition of 20S proteasome chymotrypsin-like activity (suc-LLVY-AMC). As to conditions: EC50 Chymotrypsin-like, Table 6, values in nM.

Series [3] concerns LeTx-mediated cytotoxicity of RAW 264.7 cells. As to conditions: read-out: EC50 for inhibition of RAW 264.7 cell cytotoxicity mediated by anthrax lethal toxin; 45 minute preincubation, 1 μg/ml LF and PA, six hours; maximum concentration 330 nM.
A further series has as its system PC-3. Kind of series: Cell growth inhibition (resazurin), PC-3. It counts as cell-based, human. As to conditions: for cytotoxicity against PC-3, in words: from EC50 values.
Another series concerns B16-F10. The series can be described thus: Cell growth inhibition (resazurin), B16-F10. As to conditions: for cytotoxicity against B16-F10, in words: from EC50 values.
The next series has as its system NCI-H292. The series can be described thus: Cell growth inhibition (resazurin), NCI-H292. As to conditions: for cytotoxicity against NCI-H292, in words: from EC50 values.
Series [4] addresses T3, trypsin-like activity of purified rabbit muscle 20S proteasome (Oryctolagus cuniculus, UniProt G1SWK8).
T3 sequence (G1SWK8 1-271): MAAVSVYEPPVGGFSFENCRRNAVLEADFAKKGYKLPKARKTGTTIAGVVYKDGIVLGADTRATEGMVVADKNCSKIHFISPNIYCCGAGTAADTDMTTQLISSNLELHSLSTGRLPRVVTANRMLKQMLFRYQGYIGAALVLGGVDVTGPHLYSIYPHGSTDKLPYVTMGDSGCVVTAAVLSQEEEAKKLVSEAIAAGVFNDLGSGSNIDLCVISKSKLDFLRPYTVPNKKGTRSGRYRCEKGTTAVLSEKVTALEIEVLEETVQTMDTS
Kind of series: In vitro inhibition of 20S proteasome trypsin-like activity (Boc-LRR-AMC). As to conditions: under the conditions tested.

For another series, the system named is OVCAR-3. The series can be described thus: Cell growth inhibition (resazurin), OVCAR-3. As to conditions: for cytotoxicity against OVCAR-3, in words: from EC50 values.
Series [5] concerns the target T3, trypsin-like activity of purified rabbit muscle 20S proteasome. The series can be described thus: biochemical.
[6] abbreviates: read-out: EC50 against RPMI 8226, Table 1.
Setting [7] is: read-out: RPMI 8226 EC50, Table 2, mean ± SD where n≥3.
[8] abbreviates: read-out: EC50 against U266, Table 1.

“And” between values parts separate entries of the source, which are not always exact repeats. Equal values may be shown once. Read-outs that look alike come from different tables or passages of the source.

Regarding `C[C@]1(O)[C@@H](CCCl)C(=O)N[C@]1(C(=O)SCC(NC(=O)CCC(N)C(=O)O)C(=O)NCC(=O)O)[C@@H](O)[C@@H]1C=CCCC1` (stereo partly shown) [Formula II-48], the stability in solution result in the series “Stability in solution” was “unstable in solution”.
`C[C@@]12OC(=O)[C@]1([C@@H](O)[C@H]1CCCC3OC31)NC(=O)[C@@H]2CCCl` (single isomer, unassigned) [Formula II-5B]: the “cytotoxicity against MDA-MB-231, in words” value in the series with MDA-MB-231 is given as “cytotoxic”. Moreover, the EC50 in the series with MDA-MB-231 (read-out: EC50 against MDA-MB-231, Table 1, 48 hours drug exposure, mean ± SD where n≥3) was 957 nM; in [1] (EC50 Caspase-like, Table 6, values in μM) it was 3.8 µM and 2.9 µM; in series [1] (EC50 values, caspase-like activity, range in mixed units, summary of Table 6, range from nM to μM), 0.956 to 8.7 µM; in the series on NF-κB, 279 nM; in the series with HT-29 (read-out: EC50 against HT-29, Table 1, 48 hours drug exposure, mean ± SD where n≥3), 1210 nM; with RPMI 8226 (setting [6]), 328 nM. The EC50 in the series with RPMI 8226 (setting [7]) was 326 nM and 328 nM; in the series on U266 (setting [8]), 111 nM; in the series on U266 (read-out: U266 EC50, Table 2), 118 nM and 111 nM; in series [2], 85 nM; in series [3], 45 nM; in the series with PC-3 (Table 1, 48 hours drug exposure, mean ± SD where n≥3, read-out: EC50 against PC-3), 1330 nM. Also, the EC50 amounted to 1140 nM in the series on B16-F10 (read-out: EC50 against B16-F10, Table 1, 48 hours drug exposure, mean ± SD where n≥3) and 1250 nM in the series with NCI-H292 (read-out: EC50 against NCI-H292, Table 1, 48 hours drug exposure, mean ± SD where n≥3). Moreover, the “effect on luciferase activity upon TNF-α stimulation, in words” value with NF-κB was “dose-dependent decrease”. Moreover, the “cytotoxicity against HT-29, in words” value with HT-29 is recorded as “cytotoxic”. Moreover, in the series with RPMI 8226, the “cytotoxicity against RPMI 8226, in words” value is listed as “cytotoxic”. Further, the “cytotoxicity against U266, in words” value in the series on U266 is on record as “cytotoxic”. Besides, the “cytotoxicity against PC-3, in words” value in the series with PC-3 was “cytotoxic”. Moreover, the “cytotoxicity against B16-F10, in words” value in the series on B16-F10 is on record as “cytotoxic”. Moreover, the “cytotoxicity against NCI-H292, in words” value in the series on NCI-H292 is “cytotoxic”. Moreover, in [4], the “inhibition of the trypsin-like activity of the 20S proteasome, in words” value is “able to inhibit”. Besides, the “cytotoxicity against OVCAR-3, in words” value with OVCAR-3 is recorded as “cytotoxic”.
With `C[C@@]12OC(=O)[C@]1([C@@H](O)[C@H]1CCCC3OC31)NC(=O)[C@@H]2CCCl` (single isomer, unassigned) [Formula II-5A], the “cytotoxicity against MDA-MB-231, in words” value in the series with MDA-MB-231 is reported as “cytotoxic”. In addition, the EC50 in [1] (EC50 Caspase-like, Table 6, values in nM) is 0.535 µM and 0.438 µM; in [1] (EC50 values, caspase-like activity, summary of Table 6), 0.213 to 0.85 µM; in the series on NF-κB, 33 nM; with RPMI 8226 (setting [6]) it was 29 nM; in the series with RPMI 8226 (setting [7]) it was 36 nM and 29 nM; in the series on U266 (setting [8]) it was 9 nM. Further, the EC50 with U266 (read-out: U266 EC50, Table 2) is 10 nM and 9 nM; in series [2] it was 6 nM and 7 nM; in [3], 3 nM; in series [5], 90 nM; in the series with OVCAR-3 (read-out: EC50 against OVCAR-3, Table 1, 48 hours drug exposure), 64 nM. In addition, the “effect on luciferase activity upon TNF-α stimulation, in words” value in the series with NF-κB is listed as “dose-dependent decrease”. Besides, in the series on HT-29, the “cytotoxicity against HT-29, in words” value is “cytotoxic”. Moreover, in the series on RPMI 8226, the “cytotoxicity against RPMI 8226, in words” value is on record as “cytotoxic”. The “cytotoxicity against U266, in words” value with U266 is given as “cytotoxic”. Besides, in the series on PC-3, the “cytotoxicity against PC-3, in words” value is “cytotoxic”. Further, the “cytotoxicity against B16-F10, in words” value in the series on B16-F10 is “cytotoxic”. In the series on NCI-H292, the “cytotoxicity against NCI-H292, in words” value is on record as “cytotoxic”. In addition, the “inhibition of the trypsin-like activity of the 20S proteasome, in words” value in [4] is “able to inhibit”. For the same molecule, the “cytotoxicity against OVCAR-3, in words” value in the series with OVCAR-3 is “cytotoxic”.

Values taken from US7544814B2, “[3.2.0] Heterocyclic compounds and methods of using the same” (Nereus Pharmaceuticals, Inc., priority 2004, dated 2009).
